Ends that are not written are not given here.
Tests used:
[1] = tested on: C57BL/KsJ@Rj-db (db/db) mice; assay: Long-term treatment of db/db mice; format: in vivo
Method: Peptides or vehicle will be given once daily (group A-D) between 2°°-3°° p m. subcutaneously in the skin fold of the back. The regimen was continued for 18 weeks. From week 12 to 18 treatment was done twice a day in 6 of 12 animals per group.
Various parameters of the mice were investigated, i.e. health status (1), body weight (2), food consumption (3), blood glucose (4), glucose tolerance test (5), insulin data (6), glycosylated hemoglobin (7), pathology (8), and restimulation of T cells (9). • Health status (1) was good in all groups, no side effects of the treatment have been seen. • Body weight (2) was lower in all treated groups after 18 weeks of treatment (FIG. 13). […] The mean values of 12 animals per group are plotted. […] The relative body weight increase of 12 animals per group after a treatment of 122 days is plotted. […] Non-fasted blood glucose level (1 hour after peptide injection) is shown in FIG. 15A, i.e. the effect of a treatment with saline (A), CM1 (B), CM3-ANA01 (C) or exendin (D) on the non-fasted blood glucose levels. Blood glucose was measured from a tail bleed 1 hour after s.c. injection of saline (A) or the peptides CM1 (B), CM3-ANA01 (C) or exendin (D) in a concentration of 24 nmol/kg. […] Blood glucose was measured from a tail bleed after a 12-hour overnight fast 18 hours after s.c. injection of the test substances. Fasted blood glucose level 18h after peptide injection is reduced in the CM1 and CM3-ANA01 group. • An i.p. glucose tolerance test (5) (IPGTT) was conducted after 8 weeks of treatment on mice of the groups A-D. The basal blood glucose value (0 min) of 12 hour fasted animals has been determined by tail bleed followed by an s.c. injection of the test substance and an i.p. injection of 20% glucose solution (1g glucose per kg). Blood glucose has been further on determined 15, 30, 45, 60, 90 and 120 minutes after glucose injection. […] The serum was analysed for insulin with the Insulin Mouse Ultrasensitive ELISA (Cat.# EIA-3440, DRG). […]

[2] = tested on: type II diabetic mice (C57BL/Ks-Lepr db/db); assay: In vivo bioactivity in type II diabetic mice; settings: 5 μg peptide s.c. twice a day, day 2, 4, 7, 10
Method: 11-week-old type II diabetic mice (C57BL/Ks-Lepr^db/db, Harlan) were treated with 5 μg peptide by subcutaneous injection twice a day at 9 a.m. and 5 p.m. (n=5 per group). Blood glucose was measured before (day 0) and after treatment with GLP^CM peptides (Day 2, 4, 7, 10) at 10 a.m. after an overnight fastening period. Data were presented in relation to blood glucose levels measured at day 0.
Best results were obtained with recombinant SEQ ID NO:6 (CM1) and synthetic SEQ ID NO:8 (CM3). In FIG. 9 (y-axis) the relative effect of the treatment is shown. Blood glucose at day ═O was set to 1. Untreated animals undergo continuous increase in blood glucose level over time, whereas animals treated with inventive peptides display grosso modo a continuous decrease of the blood glucose level over time.

BALB/c mice [3] = settings: mouse, in vivo
Method: (§1) The trial was done in BALB/c mice receiving 5 repeated injections (70 μg peptide/dose, i.v.) over 22d (n=5).
(§2) Spleens of the treated and control mice were explanted, T-cells isolated and stimulated with increasing amounts of antigene. Proliferative recall response is measured.

[4] = tested on: diabetic C57BL/KsJ@Rj-db (db/db) mice; assay: Dose-efficacy study in diabetic mice; format: in vivo
Method: A sixth group was treated with saline only. 7 animals were treated per group. Blood glucose was determined from tail bleeds directly before, 1 hour and 4 hours after injection.
The results are shown in dose-response curves according to FIG. 12 ([…] (GLP-1), FIG. 12B (CM1), FIG. 12C (CM3) and FIG. 12D (CM3-ANA01)). For every test substance a graph was prepared with the percentage difference of the blood glucose in relation to the start value for the different concentrations. […] Both models are sigmoidal fit models suitable for dose response evaluation. For every peptide the plasma glucose ED50 values (single s.c. dose in μg/mouse) have been determined from the percentage decrease of blood glucose.
The fall in plasma glucose and the corresponding significance levels are given for the time period 1 hour (@1 h) and 4 hours (@4 h) after peptide injection. Differences have been observed in the long-term efficacy of the peptides.

BALB/c mice [5] = assay: In vivo immunogenicity study; settings: 5 repeated injections, 70 μg peptide/dose, i.v., over 22d
Method: as §1, §2

GLP-1 receptor = target: T1, GLP-1 receptor (Homo sapiens, UniProt P43220); format: cell-based
T1 construct: expressed in transfected cells; host or cells: CHO cell line
T1 sequence (P43220 24-463, species assumed): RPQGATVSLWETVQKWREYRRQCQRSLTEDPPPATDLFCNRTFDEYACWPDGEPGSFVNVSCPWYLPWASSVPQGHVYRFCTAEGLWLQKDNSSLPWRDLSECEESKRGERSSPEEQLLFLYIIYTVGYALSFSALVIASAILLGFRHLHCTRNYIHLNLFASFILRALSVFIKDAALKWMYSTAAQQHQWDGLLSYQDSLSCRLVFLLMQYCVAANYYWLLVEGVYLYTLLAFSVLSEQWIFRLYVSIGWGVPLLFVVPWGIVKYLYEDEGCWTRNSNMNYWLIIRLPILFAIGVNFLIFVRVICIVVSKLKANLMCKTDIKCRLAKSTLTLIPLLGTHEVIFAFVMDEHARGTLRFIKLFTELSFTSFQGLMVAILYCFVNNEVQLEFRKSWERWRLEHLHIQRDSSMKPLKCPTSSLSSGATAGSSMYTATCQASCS
Method: GLP-1 Bioassay cAMP Increase
The in vitro bioactivity was tested in a GLP-1 receptor transfected CHO cell line by determining the half maximum effective dose (ED50)

DPPIV [6] = target: T2, DPPIV (Homo sapiens, UniProt P27487); assay: In vitro plasma stability (kinetic test method), GLP-1 (active) ELISA; settings: for remaining at 9 h, 1 μM: human, pH 7.8
Target sequence in this assay (P27487 whole entry): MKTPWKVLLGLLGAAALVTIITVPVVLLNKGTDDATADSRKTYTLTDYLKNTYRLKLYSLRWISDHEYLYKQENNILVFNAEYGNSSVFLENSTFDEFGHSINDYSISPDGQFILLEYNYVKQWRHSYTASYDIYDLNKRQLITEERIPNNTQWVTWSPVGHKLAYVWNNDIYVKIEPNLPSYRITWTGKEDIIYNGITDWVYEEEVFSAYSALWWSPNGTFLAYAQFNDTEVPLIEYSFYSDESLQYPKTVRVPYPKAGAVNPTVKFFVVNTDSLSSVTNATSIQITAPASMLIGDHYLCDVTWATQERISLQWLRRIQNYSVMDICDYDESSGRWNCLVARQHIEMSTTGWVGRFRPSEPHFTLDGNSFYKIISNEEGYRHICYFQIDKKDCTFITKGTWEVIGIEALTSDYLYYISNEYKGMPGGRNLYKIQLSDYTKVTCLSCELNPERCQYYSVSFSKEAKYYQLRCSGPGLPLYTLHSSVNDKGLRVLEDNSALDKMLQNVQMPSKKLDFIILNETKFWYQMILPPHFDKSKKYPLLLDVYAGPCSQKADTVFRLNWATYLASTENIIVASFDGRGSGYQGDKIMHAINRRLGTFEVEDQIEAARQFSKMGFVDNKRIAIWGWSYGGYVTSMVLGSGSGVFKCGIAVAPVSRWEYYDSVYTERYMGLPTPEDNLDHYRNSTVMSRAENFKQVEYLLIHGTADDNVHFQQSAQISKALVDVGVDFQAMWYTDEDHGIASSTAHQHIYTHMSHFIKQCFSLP
Text: Results are from triplicates in at least two independent experiments.

DPPIV [7] = target: T2, DPPIV; assay: In vitro human plasma stability of GLP-1 CM peptides; settings: 20 ng/ml, 37° C., 3 hours
Target sequence in this assay (P27487 39-766 limits assumed): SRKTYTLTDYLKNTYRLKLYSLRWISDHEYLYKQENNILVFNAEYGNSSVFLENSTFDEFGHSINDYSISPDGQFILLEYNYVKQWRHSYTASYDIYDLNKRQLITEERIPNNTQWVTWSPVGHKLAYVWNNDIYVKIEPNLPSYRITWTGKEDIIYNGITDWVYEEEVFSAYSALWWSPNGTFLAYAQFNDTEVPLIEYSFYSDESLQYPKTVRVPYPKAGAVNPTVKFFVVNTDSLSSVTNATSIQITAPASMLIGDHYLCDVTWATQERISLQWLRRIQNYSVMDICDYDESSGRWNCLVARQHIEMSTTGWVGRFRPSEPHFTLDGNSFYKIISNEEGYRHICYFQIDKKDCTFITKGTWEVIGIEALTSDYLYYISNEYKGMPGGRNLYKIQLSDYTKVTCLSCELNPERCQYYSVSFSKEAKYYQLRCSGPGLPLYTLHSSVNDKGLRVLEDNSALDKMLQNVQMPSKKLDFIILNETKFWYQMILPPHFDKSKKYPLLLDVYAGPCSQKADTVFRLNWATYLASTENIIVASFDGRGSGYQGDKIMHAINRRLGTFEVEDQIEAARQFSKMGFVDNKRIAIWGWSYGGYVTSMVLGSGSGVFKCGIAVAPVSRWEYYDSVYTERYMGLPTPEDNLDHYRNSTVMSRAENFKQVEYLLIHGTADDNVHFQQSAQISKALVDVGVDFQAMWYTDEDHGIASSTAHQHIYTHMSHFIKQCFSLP
Text: Dipeptidylpeptidase activity of the plasma was inhibited by an DPP-IV inhibitor (#DPP4, Biotrend).

diabetic db/db mice = assay: In vivo bioactivity of PEGylated peptide in diabetic db/db mice

For GLP-1(7-37)—IP2-RR-GLP1(7-37) [CM1], which food consumption ([1]; 24 nmol/kg s.c., 122 day treatment period, compared to the control) is on record?
The food consumption was “significantly lower”.

And the “fasted blood glucose level” value ([1]; 12-hour overnight fast, 18h after peptide injection)?
Its value is “reduced”.

And the “non fasted blood glucose level compared to control” value ([1]; 1h after s.c. peptide injection, 24 nmol/kg)?
Its value is 55%.

What about the “anti-hyperglycemia effect (blood glucose relative to day 0)” value [2] of the same substance?
Its value is “anti-hyperglycemia effect”.

And the clinically relevant immunogenicity (BALB/c mice [3])?
The clinically relevant immunogenicity was “absence of any clinically relevant immunogenicity”.

What about the “ED50 (plasma glucose)” value ([4]; single s.c. dose, 1 h measurements, percentage decrease of blood glucose) of the same substance?
Its value is 0.61 μg/mouse.

What about the “fall in plasma glucose @1 h” value ([4]; single s.c. injection of 1.1-3.0 nmol peptide, versus control, 1 hour) of the same substance?
Its value is 50% ± 14%.

And the “fall in plasma glucose @4 h” value ([4]; single s.c. injection of 1.1-3.0 nmol peptide, versus control, 4 hours)?
The value was 0%.

And the toxicity (BALB/c mice [5])?
The toxicity was “no toxicity”.

Which “ED50 (half maximum effective dose), cAMP increase” value (GLP-1 receptor) does the source give for “HAEGTFTSDVSSYLEGQAAKEFIAWLVKGRGAADFPEEVAIAEELG [CM3-ANA01]” here?
The value was 159 µM.

And the “active GLP-1 as a % of the 0 h value after 9 h” value (DPPIV [6]; 1 μM peptide, 10% human plasma, 37° C., 9 h)?
Its value is 84%.

And the “in vitro plasma stability (comparison)” value (DPPIV [6]; 10% human plasma, 37° C.)?
Its value is “higher plasma stability than CM3”.

What about the remaining at 9 h, 1 μM (DPPIV [6]; 10% human plasma) of the same substance?
The remaining at 9 h, 1 μM was 84%.

“HAEGTFTSDVSSYLEGQAAKEFIAWLVKGRGRRDAAAAVAIAEELG [CM3-ANA03]” was tested. Which “in vitro plasma stability (comparison)” value (DPPIV [6]; 10% human plasma, 37° C.) did it give?
The value was “strongly reduced stability compared to CM3”.

How did the “stability in human plasma in vitro” value (DPPIV [7]) turn out when “HAEGTFTSDVSSYLEGQAAKEFIAWLVKGRGRRDFPEEVAIAEELG [CM3]” was run?
The value was “significantly stabilized”.

And the “ED50 (half maximum effective dose), cAMP increase” value (GLP-1 receptor)?
The value was 187 µM.

What about the remaining at 9 h, 1 μM (DPPIV [6]; 10% human plasma) of the same substance?
The remaining at 9 h, 1 μM was 63%.

Which results are given for “PEG-CM3-ANA08: CM3-ANA08 covalently conjugated to unbranched 40 kDa mPEG maleimido propionamide via thiol of the C-terminal cysteine (HAEGTFTSDVSSYLEGQAAKEFIAWLVKGRGRRDFPEEVAIAEELGC)”?
signs of toxicity (diabetic db/db mice; mouse, in vivo): No signs of toxicity; blood glucose decrease (diabetic db/db mice; treated versus non-treated group): significant blood glucose decrease; ED50 relative to CM3 (lowered in vitro bioactivity) (GLP-1 receptor; GLP-1 receptor transfected CHO cell line): approximately 5 times; peptide detected in the GLP-1 active ELISA (DPPIV [6]; 0 hours): 19%
